Assay results published in publication PMC8175350, “Drug repurposing screens identify chemical entities for the development of COVID-19 interventions” (Nature Communications, 2021).
“And” between values parts separate entries of the source, which are not always exact repeats. Identical values can stand only once. Like-named read-outs stand apart in the source and are kept apart here.

Legend:
[1] = tested on: SARS-CoV-2; assay: microbe, parasite or virus in culture; type: cell-based; conditions: for SARS-CoV-2 % infected cells: 10 µM after 1 h infection; for TOA: HeLa-ACE2, replicate wells n=1-3
[2] = tested on: Calu-3 cells; assay: Uninfected Calu-3 48 h Cell-Titer Glo cytotoxicity counter screen
[3] = tested on: SARS-CoV-2; type: cell-based
[4] = tested on: HeLa-ACE2 cells; assay: cells; conditions: Homo sapiens
[5] = tested on: SARS-CoV-2; assay: microbe, parasite or virus in culture; type: cell-based; conditions: for %infected: replicate wells n=1-3
[6] = Uninfected HeLa-ACE2 24 h live/dead cytotoxicity counter screen; type: cell-based, human; conditions: human, uninfected HeLa-ACE2 cells
[7] = tested on: HeLa-ACE2 cells; assay: as above; type: cell-based, human; conditions: for cytotox: HeLa-ACE2, replicate wells n=1-3
[8] = tested on: HeLa-ACE2 cells; assay: Total cell count in the HeLa-ACE2 TOA assay; type: cell-based; conditions: Homo sapiens
Excerpt: Supplement 41467_2021_23328_MOESM3_ESM.xlsx, sheet "Table S1" | column: HeLa-ACE2 TOA cell count

[9] = tested on: Calu-3 cells; assay: cells; conditions: Homo sapiens
[10] = tested on: COVID-19; conditions: ref [9]; cited from earlier work
[11] = in vitro; conditions: human
[12] = tested on: SARS-CoV-2; assay: microbe, parasite or virus in culture; type: cell-based; conditions: for %infected: Calu-3, replicate wells n=1-3; for EC50: read-out: Calu-3 SARS-CoV-2 EC50
[13] = tested on: COVID-19; conditions: shortened from 15; ref [7]; cited from earlier work
[14] = curve plateau at infinite concentration

CCC(CC)COC(=O)[C@H](C)N[P@](=O)(OC[C@H]1O[C@@](C#N)(c2ccc3c(N)ncnn23)[C@H](O)[C@@H]1O)Oc1ccccc1 [Remdesivir]
SARS-CoV-2 % infected cells ([1]; 4:00:00 post infection): 0.0558% and 0.1777% and 0.2107%
SARS-CoV-2 % infected cells ([1]; 5:00:00): 0.7242% and 1.236% and 0.5657%
SARS-CoV-2 % infected cells ([1]; 6:00:00): 1.289% and 0.8606%
SARS-CoV-2 % infected cells ([1]; 7:00:00): 0.8435% and 0.9162%
SARS-CoV-2 % infected cells ([1]; 8:00:00): 1.114% and 1.68%
SARS-CoV-2 % infected cells ([1]; 10:00:00): 1.9707% and 2.635%
SARS-CoV-2 % infected cells ([1]; 11:00:00): 2.255% and 2.403%
SARS-CoV-2 % infected cells ([1]; 12:00:00): 4.554%
SARS-CoV-2 % infected cells ([1]; 24:00:00): 1.211% and 0.9586%
activity when treatment was initiated at 1 hpi ([1]; HeLa-ACE2, 10 µM): effectively blocked the infection
TOA ([1]; concentration log[M] -5.61909): -92.6138 and -80.8583 and -88.199 and -76.7514 and -93.5448 and -83.4805 and -80.3661 and -74.8437 and -99.8898
TOA ([1]; concentration log[M] -6.09621): -68.7737 and -49.7255 and -48.7992 and -40.2692 and -44.1304 and -40.198 and -47.0122 and -58.4412 and -51.4261
TOA ([1]; concentration log[M] -6.57334): -20.3161 and -18.1481 and -10.1709 and -1.508 and -0.9303 and -16.8539 and -5.25 and -7.77
TOA ([1]; concentration log[M] -7.05046): -7.493 and -17.8403 and -13.1433 and -19.1912 and -3.289 and -5.355 and 2.9336 and -2.419
TOA ([1]; concentration log[M] -7.52758): -5.952 and 2.422 and 1.456 and -1.724 and -2.397 and 2.2617 and 7.029 and -1.667 and -1.15
TOA ([1]; concentration log[M] -8.0047): 5.958 and 5.629 and 3.068 and -1.8321 and 3.442 and 6.226 and 7.961 and 4.025 and 11.376
TOA ([1]; concentration log[M] -8.48182): 4.28 and 10.7449 and 12.4349 and -4.585 and 4.364 and -1.184 and 4.823 and 5.851 and -1.616
TOA ([1]; concentration log[M] -8.95894): -2.286 and -0.1755 and 11.8345 and -1.884 and 3.08 and 1.621 and -5.04 and -0.06688 and -11.3351
Emax ([1]; Severe acute respiratory syndrome coronavirus 2, HeLa-ACE2, 10 h, curve plateau at infinite concentration, read-out: HeLa-ACE2 TOA CoV-2 Sinf Average): 102%
EC50 ([1]; Severe acute respiratory syndrome coronavirus 2, HeLa-ACE2, read-out: HeLa-ACE2 TOA CoV-2 EC50 GeoMean): 795 nM
EC50 ([1]; Severe acute respiratory syndrome coronavirus 2, HeLa-ACE2, fixed 10 hpi, geomean, read-out: CoV-2 TOA EC50): 770 nM
cytotox ([2]; Calu-3, concentration log[M] -5, replicate wells n=1-3): 10.3923 and -8.975 and 0.952 and 18.306 and 7.959 and -3.54 and 10.6309 and -10.2579 and 5.131
Calu-3 uninfected cytotoxicity Sinf Average [2, 14]: -95%
effect on viral replication in ALI-HBECs [3]: inhibited viral replication
Emax ([4]; HeLa-ACE2, 24 h, read-out: HeLa-ACE2 cell count Sinf Average): 100%
EC50 ([4]; HeLa-ACE2, read-out: HeLa-ACE2 cell count EC50 GeoMean): > 9600 nM
EC50 ([4]; HeLa-ACE2, read-out: cell count in infection assay EC50, HeLa-ACE2, geomean, ^↑ = increasing dose-response curve): > 1200 nM
increase in EC50 from MOI = 0.09 to MOI = 2.2 ([5]; HeLa-ACE2): 2.7 fold
EC50 ([5]; HeLa-ACE2, individual values of 9 independent experiments, read-out: EC50 (µM), Fig 1c): 191 nM and 83 nM and 141 nM and 130 nM and 138 nM (2×)
%infected ([5]; HeLa-ACE2, concentration log[M] -5.61909): -99.4999% and -95.8005% and -94.7545% and -97.535% and -100.056% and -100.005% and -100.014% and -99.12% and -100%
%infected ([5]; HeLa-ACE2, concentration log[M] -6.09621): -99.2124% and -98.9733% and -96.3176% and -99.76% and -100.229% and -100.013%
%infected ([5]; HeLa-ACE2, concentration log[M] -8.48182): 18.582% and -4.2719% and -2.02% and 15.6179% and -5.577% and 7.137% and 7.4% and 8.398% and -2.488%
%infected ([5]; HeLa-ACE2, concentration log[M] -8.95894): 3.102% and 6.636% and 1.634% and -11.6076% and 6.069% and -5.672% and -8.653%
Emax ([5]; Severe acute respiratory syndrome coronavirus 2, HeLa-ACE2, 24 h, curve plateau at infinite concentration, read-out: HeLa-ACE2 CoV-2 Sinf Average): 100%
EC50 ([5]; Severe acute respiratory syndrome coronavirus 2, HeLa-ACE2, HeLa-ACE2, MOI 0.51, read-out: EC50): 126 nM
EC50 ([5]; Severe acute respiratory syndrome coronavirus 2, HeLa-ACE2, HeLa-ACE2, MOI 1.1, read-out: EC50): 145 nM
EC50 ([5]; Severe acute respiratory syndrome coronavirus 2, HeLa-ACE2, HeLa-ACE2, MOI 2.2, read-out: EC50): 223 nM
EC50 ([5]; Severe acute respiratory syndrome coronavirus 2, HeLa-ACE2, reconfirmed hits, read-out: HeLa-ACE2 SARS-CoV-2 EC50): 127 nM
EC50 ([5]; Severe acute respiratory syndrome coronavirus 2, HeLa-ACE2, value in brackets*: remdesivir control, read-out: HeLa-ACE2 SARS-CoV-2 EC50): 123 nM
CC50 at 24 h ([6]; geomean, read-out: uninfected HeLa-ACE2 cytotoxicity CC50): > 9670 nM
CC50 at 24 h ([6]; reconfirmed hits, read-out: HeLa-ACE2 Uninf. cells CC50): 9970 nM
CC50 at 24 h ([6]; value in brackets*: remdesivir control, read-out: HeLa-ACE2 Uninf. cells CC50): 9670 nM
CC50 at 24 h ([6]; read-out: HeLa-ACE2 uninfected cytotoxicity CC50 GeoMean): 9970 nM
cytotox ([7]; concentration log[M] -5): -48.6076 and -58.6844 and -51.3625 and -48.213 and -50.9294 and -56.7143 and -47.8141 and -43.3369 and -36.9299
cytotox ([7]; concentration log[M] -5.47712): -19.1561 and -17.8418 and -30.9661 and -14.3691 and -23.5688 and -36.4286 and -15.3846 and -28.169 and -29.0323
cytotox ([7]; concentration log[M] -5.95424): 6.751 and 11.4789 and 9.414 and -2.699 and 2.9 and 4.429 and 8.301 and 5.85 and 4.672
cytotox ([7]; concentration log[M] -6.43136): -5.57 and 5.718 and -0.9083 and 5.1787 and 2.305 and -8.143 and -9.851 and -10.8342 and 4.561
cytotox ([7]; concentration log[M] -6.90849): 2.8692 and 11.5649 and -1.239 and 5.033 and 15.0929 and 0 and 8.342
cytotox ([7]; concentration log[M] -7.38561): -3.882 and -2.966 and 0.578 and 12.6185 and 0.223 and 8.571 and 4.759 and -6.934 and 4.338
cytotox ([7]; concentration log[M] -7.86273): 4.3038 and -8.727 and 10.4046 and -9.847 and -4.535 and -6.857 and 3.25 and -6.674
cytotox ([7]; concentration log[M] -8.33985): 0.2532 and 0.129 and -1.817 and 2.115 and -17.6208 and -2.857 and -8.744 and 4.117 and 1.669
HeLa-ACE2 uninfected cytotoxicity Sinf Average [7, 14]: -86%
Emax ([8]; HeLa-ACE2, 10 h, curve plateau at infinite concentration, read-out: HeLa-ACE2 TOA cell count Sinf Average): 100%
EC50 ([8]; HeLa-ACE2, read-out: HeLa-ACE2 TOA cell count EC50 GeoMean): > 9610 nM
Emax ([9]; Calu-3, 48 h, read-out: Calu-3 cell count Sinf Average): 103%
EC50 ([9]; Calu-3, read-out: Calu-3 cell count EC50 GeoMean): 700 nM
EC50 ([9]; Calu-3, read-out: cell count EC50, Calu-3, geomean, ^↑ = increasing dose-response curve): 537 nM
mortality of hospitalized COVID-19 patients [10]: failed to reduce mortality
CC50 ([11]; Calu-3 Uninf. cells CC50 (µM), reconfirmed hits): > 30 µM
CC50 ([11]; Calu-3 Uninf. cells CC50 (µM), value in brackets*: remdesivir control): > 30 µM
CC50 ([11]; Calu-3 uninfected cytotoxicity CC50 GeoMean): > 29.9 µM
CC50 ([11]; cytotoxicity CC50, uninfected Calu-3, geomean): > 30 µM
%infected ([12]; concentration log[M] -5): -100% and -99.897% and -100.088% and -98.7564% and -99.5799% and -100.046% and -100.098% and -100.338% and -99.9472%
%infected ([12]; concentration log[M] -5.47712): -99.1601% and -98.4923% and -99.234% and -99.2295% and -99.4568% and -99.7507% and -99.3361% and -99.5394% and -98.7541%
%infected ([12]; concentration log[M] -5.95424): -89.5337% and -93.208% and -92.5628% and -91.8668% and -95.3312% and -93.4282% and -90.0849% and -90.1886% and -82.0673%
%infected ([12]; concentration log[M] -6.43136): -39.9603% and -66.0539% and -61.9632% and -57.8703% and -42.505% and -37.1362% and -41.0562% and -18.9015% and -48.5538%
%infected ([12]; concentration log[M] -6.90849): 15.313% and 14.726% and -3.639% and 30.6752% and -6.396% and 10.9651% and -1.713% and -1.879%
%infected ([12]; concentration log[M] -7.38561): 1.995% and -3.779% and 16.4097% and -7.2105% and 10.833% and 28.7058% and 9.608% and 17.5254%
%infected ([12]; concentration log[M] -7.86273): 12.1902% and -3.292% and 25.9949% and 14.3562% and 4.371% and -33.8895% and 13.327% and 8.365% and 21.3189%
%infected ([12]; concentration log[M] -8.33985): -5.4528% and 0% and -9.776% and -9.382% and 5.183% and 10.3172% and 15.4186% and 28.7222%
Emax ([12]; Severe acute respiratory syndrome coronavirus 2, Calu-3, 48 h, curve plateau at infinite concentration, read-out: Calu-3 CoV-2 Sinf Average): 102%
EC50 ([12]; Severe acute respiratory syndrome coronavirus 2, Calu-3, reconfirmed hits): 606 nM
EC50 ([12]; Severe acute respiratory syndrome coronavirus 2, Calu-3, value in brackets*: remdesivir control): 444 nM
median time to recovery [13]: 11 days
